# Source: PMC3961306, “Comparison of the Cancer Gene Targeting and Biochemical Selectivities of All Targeted Kinase Inhibitors Approved for Clinical Use” (PLoS ONE, 2014)
# Assays:
# Experiment in all cases: Kinase profiling in a biochemical assay panel (mobility shift assays and ELISA), %-inhibition at 1 μM; selectivity entropy
# [1] = target: panel of more than 300 wild-type and mutant kinases (313 kinase panel) (Homo sapiens, UniProt Q14012)
# [2] = target: panel of more than 300 wild-type and mutant kinases (313 kinase panel) (Homo sapiens, UniProt O96013)
# [3] = target: panel of more than 300 wild-type and mutant kinases (313 kinase panel) (Homo sapiens, UniProt P16234, T674I)
# Sequence of panel of more than 300 wild-type and mutant kinases (313 kinase panel) (Homo sapiens, UniProt P16234, T674I) (P16234 24-1089 T674I): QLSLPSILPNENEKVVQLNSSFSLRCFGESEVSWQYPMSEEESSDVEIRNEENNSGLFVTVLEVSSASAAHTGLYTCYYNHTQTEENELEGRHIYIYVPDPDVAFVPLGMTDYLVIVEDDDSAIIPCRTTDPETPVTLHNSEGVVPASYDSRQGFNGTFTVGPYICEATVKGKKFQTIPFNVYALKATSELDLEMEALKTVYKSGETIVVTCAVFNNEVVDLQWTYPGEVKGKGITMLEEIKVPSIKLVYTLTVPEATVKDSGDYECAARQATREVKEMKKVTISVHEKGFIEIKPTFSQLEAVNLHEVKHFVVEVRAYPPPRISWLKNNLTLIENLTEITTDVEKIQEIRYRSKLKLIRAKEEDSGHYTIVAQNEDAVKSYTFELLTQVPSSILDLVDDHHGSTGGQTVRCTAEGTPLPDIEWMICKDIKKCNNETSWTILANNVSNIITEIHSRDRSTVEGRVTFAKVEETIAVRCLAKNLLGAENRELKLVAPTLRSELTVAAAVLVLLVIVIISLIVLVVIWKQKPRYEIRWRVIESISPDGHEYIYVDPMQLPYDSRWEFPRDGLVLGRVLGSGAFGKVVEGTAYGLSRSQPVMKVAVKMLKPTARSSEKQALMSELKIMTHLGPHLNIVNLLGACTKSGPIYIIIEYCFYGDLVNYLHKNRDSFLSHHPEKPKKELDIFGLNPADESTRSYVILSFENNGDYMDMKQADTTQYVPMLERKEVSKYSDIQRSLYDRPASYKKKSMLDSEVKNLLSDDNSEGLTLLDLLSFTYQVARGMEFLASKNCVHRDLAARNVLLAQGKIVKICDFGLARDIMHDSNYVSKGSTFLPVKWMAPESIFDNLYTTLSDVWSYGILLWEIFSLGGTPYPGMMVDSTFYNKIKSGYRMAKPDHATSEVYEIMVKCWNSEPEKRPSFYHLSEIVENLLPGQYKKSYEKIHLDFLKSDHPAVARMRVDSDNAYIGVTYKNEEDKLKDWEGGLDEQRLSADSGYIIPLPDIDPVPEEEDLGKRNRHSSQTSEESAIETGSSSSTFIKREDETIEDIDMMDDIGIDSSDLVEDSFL
# [4] = target: T1, panel of more than 300 wild-type and mutant kinases (313 kinase panel) (Homo sapiens, UniProt Q14164)
# T1 sequence (Q14164 1-716): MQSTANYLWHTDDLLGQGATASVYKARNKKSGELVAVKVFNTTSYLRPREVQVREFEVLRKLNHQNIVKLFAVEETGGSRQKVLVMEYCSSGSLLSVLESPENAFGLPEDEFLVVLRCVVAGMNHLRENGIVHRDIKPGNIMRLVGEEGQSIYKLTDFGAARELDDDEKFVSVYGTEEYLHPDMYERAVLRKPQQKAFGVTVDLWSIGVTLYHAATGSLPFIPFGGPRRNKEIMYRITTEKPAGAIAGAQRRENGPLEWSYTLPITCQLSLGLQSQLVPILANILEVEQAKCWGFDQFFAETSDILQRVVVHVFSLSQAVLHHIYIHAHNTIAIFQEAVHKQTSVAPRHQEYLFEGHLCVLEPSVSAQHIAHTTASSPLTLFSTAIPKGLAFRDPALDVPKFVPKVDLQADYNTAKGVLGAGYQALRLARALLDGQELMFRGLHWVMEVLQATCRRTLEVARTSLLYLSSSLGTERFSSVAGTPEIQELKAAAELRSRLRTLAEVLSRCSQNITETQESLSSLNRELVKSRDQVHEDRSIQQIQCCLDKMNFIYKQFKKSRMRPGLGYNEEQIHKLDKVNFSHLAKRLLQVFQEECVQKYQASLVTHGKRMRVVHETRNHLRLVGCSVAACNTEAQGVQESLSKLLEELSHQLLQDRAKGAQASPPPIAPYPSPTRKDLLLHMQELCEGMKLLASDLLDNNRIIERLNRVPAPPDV
# [5] = target: T2, panel of more than 300 wild-type and mutant kinases (313 kinase panel) (Homo sapiens, UniProt Q8IW41)
# T2 sequence (Q8IW41 1-473): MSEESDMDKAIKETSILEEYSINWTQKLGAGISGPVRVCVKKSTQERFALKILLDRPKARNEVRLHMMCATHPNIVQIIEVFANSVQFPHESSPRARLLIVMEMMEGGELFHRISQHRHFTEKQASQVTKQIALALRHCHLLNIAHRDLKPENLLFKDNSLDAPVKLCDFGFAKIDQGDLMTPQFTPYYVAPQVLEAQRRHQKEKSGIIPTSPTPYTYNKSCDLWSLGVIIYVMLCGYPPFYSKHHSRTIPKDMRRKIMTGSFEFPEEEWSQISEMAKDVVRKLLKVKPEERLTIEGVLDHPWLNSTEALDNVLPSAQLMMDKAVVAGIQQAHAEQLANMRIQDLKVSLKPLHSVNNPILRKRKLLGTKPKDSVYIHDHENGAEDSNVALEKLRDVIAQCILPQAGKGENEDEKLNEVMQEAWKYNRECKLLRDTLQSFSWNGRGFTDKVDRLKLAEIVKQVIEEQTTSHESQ
# [6] = target: panel of more than 300 wild-type and mutant kinases (313 kinase panel) (Homo sapiens, UniProt P53355)
# [7] = target: panel of more than 300 wild-type and mutant kinases (313 kinase panel) (Homo sapiens, UniProt P16591)
# Sequence of panel of more than 300 wild-type and mutant kinases (313 kinase panel) (Homo sapiens, UniProt P16591) (P16591 whole entry, change not shown): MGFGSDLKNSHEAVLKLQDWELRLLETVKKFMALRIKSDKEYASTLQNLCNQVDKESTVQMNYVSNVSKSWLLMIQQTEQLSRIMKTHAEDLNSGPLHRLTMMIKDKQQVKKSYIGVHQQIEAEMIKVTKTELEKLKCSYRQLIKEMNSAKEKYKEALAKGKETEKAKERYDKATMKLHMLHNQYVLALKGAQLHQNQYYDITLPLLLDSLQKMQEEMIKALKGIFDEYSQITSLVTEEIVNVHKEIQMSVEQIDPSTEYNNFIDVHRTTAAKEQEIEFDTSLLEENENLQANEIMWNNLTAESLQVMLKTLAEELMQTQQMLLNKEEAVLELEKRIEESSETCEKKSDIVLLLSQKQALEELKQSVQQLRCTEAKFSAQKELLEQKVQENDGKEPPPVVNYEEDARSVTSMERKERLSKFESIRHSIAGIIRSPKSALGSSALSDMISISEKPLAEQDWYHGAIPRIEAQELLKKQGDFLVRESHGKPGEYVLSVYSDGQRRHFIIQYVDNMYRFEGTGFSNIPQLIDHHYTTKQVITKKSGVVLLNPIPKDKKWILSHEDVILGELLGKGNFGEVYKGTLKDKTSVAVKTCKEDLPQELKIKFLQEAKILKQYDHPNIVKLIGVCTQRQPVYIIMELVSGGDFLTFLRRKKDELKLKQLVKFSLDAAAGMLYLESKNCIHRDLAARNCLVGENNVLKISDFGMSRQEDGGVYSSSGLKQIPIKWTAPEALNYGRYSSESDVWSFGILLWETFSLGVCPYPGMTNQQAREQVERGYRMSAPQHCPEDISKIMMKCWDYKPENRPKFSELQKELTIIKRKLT
# [8] = kinase MAPKAPK5, compound at 1 μM
SMILES,"%-inhibition, CaMK1α ([1]; kinase CaMK1α, 1 μM compound)","%-inhibition of PAK4 ([2]; kinase PAK4, 1 μM)","%-inhibition of PDGFRα(T674I) ([3]; kinase PDGFRα(T674I), 1 μM)","%-inhibition of IKKε ([4]; kinase IKKε, compound at 1 μM)","%-inhibition of MAPKAPK5 [5, 8]","%-inhibition of DAPK1 ([6]; kinase DAPK1, compound at 1 μM)","%-inhibition of FER ([7]; kinase FER, compound at 1 μM)",%-inhibition of MAPKAPK5 ([5]; 1 µM),"%-inhibition, CaMK1α ([1]; 1 µM)",%-inhibition of PAK4 ([2]; 1 µM),%-inhibition of IKKε ([4]; 1 µM),%-inhibition of DAPK1 ([6]; 1 µM),%-inhibition of FER ([7]; 1 µM),%-inhibition of PDGFRα(T674I) ([3]; 1 µM)
CO[C@H]1C[C@@H]2CC[C@@H](C)[C@@](O)(O2)C(=O)C(=O)N2CCCC[C@H]2C(=O)O[C@H]([C@H](C)C[C@@H]2CC[C@@H](OCCO)[C@H](OC)C2)CC(=O)[C@H](C)/C=C(\C)[C@@H](O)[C@@H](OC)C(=O)[C@H](C)C[C@H](C)/C=C/C=C/C=C/1C [everolimus],-8%,-4%,0.248%,-10%,-9%,-15%,-0.138%,,,,,,,
CCN(CC)CCNC(=O)c1c(C)[nH]c(/C=C2\C(=O)Nc3ccc(F)cc32)c1C [sunitinib],,6.58%,,,,,,,,,,,,
CC(=O)Nc1cccc(-n2c(=O)n(C3CC3)c(=O)c3c(Nc4ccc(I)cc4F)n(C)c(=O)c(C)c32)c1 [trametinib],-2%,-0.675%,-0.248%,-3.63%,-2.22%,-6%,4.28%,,,,,,,
O=S(=O)(c1cccc2cnccc12)N1CCCNCC1 [fasudil],-5.45%,,21%,-1.77%,-1.65%,10%,-3%,,,,,,,
N#CC[C@H](C1CCCC1)n1cc(-c2ncnc3[nH]ccc23)cn1 [ruxolitinib],,0.371%,17%,15%,,71%,33%,-4.52%,,,,,,
COc1cc2nccc(Oc3ccc(NC(=O)C4(C(=O)Nc5ccc(F)cc5)CC4)cc3)c2cc1OC [cabozantinib],-0.897%,-13%,97%,-7.58%,-5%,-10%,,,,,,,,
CC(C)(C)c1nc(-c2cccc(NS(=O)(=O)c3c(F)cccc3F)c2F)c(-c2ccnc(N)n2)s1 [dabrafenib],,11%,18%,15%,,-0.54%,22%,,,,,,,
C[C@@H](Oc1cc(-c2cnn(C3CCNCC3)c2)cnc1N)c1c(Cl)ccc(F)c1Cl [crizotinib],0.734%,-5.56%,95%,7.49%,-3.19%,-4%,,,,,,,,
CCCS(=O)(=O)Nc1ccc(F)c(C(=O)c2c[nH]c3ncc(-c4ccc(Cl)cc4)cc23)c1F [vemurafenib],-3.18%,-7%,1.49%,-9%,12%,-0.115%,11%,,,,,,,
COc1cc2c(Nc3ccc(Br)cc3F)ncnc2cc1OCC1CCN(C)CC1 [vandetanib],-3%,-11%,91%,-6.49%,-0.931%,-9%,2.48%,,,,,,,
C#Cc1cccc(Nc2ncnc3cc(OCCOC)c(OCCOC)cc23)c1 [erlotinib],,,,,,,,1.53%,2.51%,-4%,5%,1.08%,4.42%,
CNC(=O)c1cc(Oc2ccc(NC(=O)Nc3ccc(Cl)c(C(F)(F)F)c3)c(F)c2)ccn1 [regorafenib],-6%,-15%,92%,-7%,-9%,-11%,-2%,,,,,,,
Cc1ccc(C(=O)Nc2ccc(CN3CCN(C)CC3)c(C(F)(F)F)c2)cc1C#Cc1cnc2cccnn12 [ponatinib],,,99%,-9%,,,89%,,,,,,,
Cc1ccc(Nc2nccc(N(C)c3ccc4c(C)n(C)nc4c3)n2)cc1S(N)(=O)=O [pazopanib],5.59%,1.68%,,0%,-4%,0.316%,81%,,,,,,,
Cc1nc(Nc2ncc(C(=O)Nc3c(C)cccc3Cl)s2)cc(N2CCN(CCO)CC2)n1 [dasatinib],1.38%,,,,,,,,,,,,,
COc1cc(Nc2c(C#N)cnc3cc(OCCCN4CCN(C)CC4)c(OC)cc23)c(Cl)cc1Cl [bosutinib],,,57%,4.39%,0%,,89%,,9%,,,,,
CS(=O)(=O)CCNCc1ccc(-c2ccc3ncnc(Nc4ccc(OCc5cccc(F)c5)c(Cl)c4)c3c2)o1 [lapatinib],8%,,,-5%,-2.68%,,3%,,,,,-6%,,18%
